According to patent publication US20240269129A1, “GLYCOGEN SYNTHASE KINASE 3 (GSK3) INHIBITORS FOR TREATING CTNNB1 SYNDROME” (Trustees of Tufts College, priority 2021, published 2024):
“Also recorded” adds a separate entry of the source.

What was measured:
GSK3α = GSK3α (Homo sapiens, UniProt P49840); assay: GSK3α inhibition, motility-shift microfluidic assay (Caliper) at Km of ATP; type: biochemical
Protocol: FIG. 12. […] (a) General synthetic scheme for synthesis of the pyrazolo-tetrahydroquinolinone scaffold. (b) IC50 GSK3α and GSK3β values for inhibition were determined at Km of ATP in a motility-shift microfluidic assay (Caliper, MA) measuring phosphorylation of a synthetic substrate. Values are average of three or more experiments. Data are shown as IC50 values in μM±standard deviation. Compounds were tested in duplicate in a 12-point dose curve with 3-fold dilution starting at 33.3 μM. […] Each inhibitor was screened against 311 kinases at a 10 μM concentration.

β-catenin protein levels = β-catenin protein levels in brain and skeletal muscle of treated β-catenin heterozygous mice, quantitative immunoblotting; type: in vivo, mouse; conditions: 30 mg/kg doses, young adult βcatHet mice
Protocol: (§1) Drug treatments using small molecule GSK3α and GSK3β inhibitors were tested in vivo, for safe and effective amelioration of the phenotypes by assaying β-catenin protein levels, learning and motor skills effects of drug vs. vehicle on CTNNB1 heterozygote mice and control littermates. In an example, a study includes administering the small molecule GSK3 inhibitor in sequential daily doses to the βcatHet mice. The daily doses can be administered, for example, for five days, or four days, or any other number of days. At some time after the last dose, such as 1 hour, the grip strength test can be administered. Additionally, the contextual fear conditioning can be performed. Sometime later, such as 1 day later, the contextual fear conditioning tests can be performed.
(§2) Mice were administered 30 mg/kg doses of the respective compounds in the present Example. Samples of the brain and muscle from control mice, βcatHet mice (untreated), and βcatHet mice (treated) were tested for levels of β-catenin.

[1] = test system: β-catenin heterozygous mice; assay: Contextual fear conditioning (learning) in β-catenin heterozygous mice; type: in vivo, mouse; conditions: 30 mg/kg doses, young adult βcatHet mice
Protocol: FIG. 2. […] Classic spatial learning task that pairs association of a particular context with a mild foot shock; freezing in the context is measured as an indicator of learning; n=26 control, 24 BcatHet; p<0.0001 Repeated Measure ANOVA; **p<0.01, ***p<0.001 multiple comparison t-test.
as §1, §2

[2] = test system: β-catenin heterozygous mice; assay: Muscle grip strength test in β-catenin heterozygous mice; type: in vivo, mouse; conditions: 30 mg/kg doses, young adult βcatHet mice
Protocol: as §1, §2

GSK3β = GSK3β (Homo sapiens, UniProt P49841); assay: GSK3β inhibition, motility-shift microfluidic assay (Caliper) at Km of ATP; type: biochemical; conditions: for IC50: at Km of ATP
Protocol: FIG. 12. Design and characterization of first paralog selective inhibitors of GSK3α and GSK3β. (a) General synthetic scheme for synthesis of the pyrazolo-tetrahydroquinolinone scaffold. (b) IC50 GSK3α and GSK3β values for inhibition were determined at Km of ATP in a motility-shift microfluidic assay (Caliper, MA) measuring phosphorylation of a synthetic substrate. Values are average of three or more experiments. Data are shown as IC50 values in μM±standard deviation. Compounds were tested in duplicate in a 12-point dose curve with 3-fold dilution starting at 33.3 μM. […] Each inhibitor was screened against 311 kinases at a 10 μM concentration. Kinases with >50% inhibition are depicted (percentage inhibition proportional to size of red dot).
Structure-based design has been aimed towards maximizing steric requirement at the R position and the corresponding differences within the selectivity pockets of GSK3α and GSK3β. […] These modifications and increased binding affinities were tolerant of simple substitutions on the phenyl ring (cf. BRD0320).

[3] = test system: CTNNB1 heterozygous iPSCs; assay: β-catenin and DKK1 protein levels in CTNNB1 heterozygous iPSCs, pilot dose-response, quantitative immunoblotting; type: cell-based, human
From the text: FIG. 14. FIG. 1. GSK3α,β inhibitors increase β-cat protein levels in (a) human CTNNB1 heterozygous glutamatergic neurons treated with BRD0320, relative to vehicle-treated het neurons, and (b) CTNNB1 het iPSCs treated with BRD0320 and LY2090314 at the indicated concentrations. Wnt target, DKK1 protein levels show similar increases to β-cat. Histograms showing comparison to (a) WT neuron levels set as 1 and (b) vehicle-treated het iPSC levels set as 1. LY2090314 increases β-cat protein levels at 10× lower concentration relative to BRD0320.
A human pluripotent stem cell line (iPSC) that lacks any pathogenic variants was made heterozygous for CTNNB1 via CRISPR-Cas9 gene editing of one allele. A premature termination (PTC+1) frameshift was introduced based on a CTNNB1 syndrome patient mutation. Haploinsufficiency was confirmed. The iPSCs were differentiated to cortical glutamatergic neurons by transfection with the transcription factor human neurogenin 2. […] As shown in FIG. 14 (a), beta-catenin protein levels were measured 24 hrs later by quantitative immunoblotting in the GSK3 inhibitor treated CTNNB1 heterozygous neurons, relative to vehicle-treated heterozygous neurons and wildtype neurons.
Beta-catenin protein levels were measured 24 hrs later by quantitative immunoblotting in the GSK3 inhibitor treated CTNNB1 heterozygous iPSCs, relative to vehicle-treated heterozygous iPSCs.

GSK3β, sequence (P49841 whole entry): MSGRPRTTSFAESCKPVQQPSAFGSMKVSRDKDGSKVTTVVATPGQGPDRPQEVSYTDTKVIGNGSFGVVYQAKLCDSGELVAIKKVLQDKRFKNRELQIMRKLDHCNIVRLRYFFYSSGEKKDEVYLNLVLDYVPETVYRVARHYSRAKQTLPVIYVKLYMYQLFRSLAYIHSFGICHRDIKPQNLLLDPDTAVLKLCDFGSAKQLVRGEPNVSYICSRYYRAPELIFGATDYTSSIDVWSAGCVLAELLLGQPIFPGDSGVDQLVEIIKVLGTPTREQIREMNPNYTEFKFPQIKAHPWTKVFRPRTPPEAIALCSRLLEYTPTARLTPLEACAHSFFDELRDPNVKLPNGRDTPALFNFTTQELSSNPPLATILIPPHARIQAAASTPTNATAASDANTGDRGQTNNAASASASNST
GSK3α, sequence (P49840 whole entry): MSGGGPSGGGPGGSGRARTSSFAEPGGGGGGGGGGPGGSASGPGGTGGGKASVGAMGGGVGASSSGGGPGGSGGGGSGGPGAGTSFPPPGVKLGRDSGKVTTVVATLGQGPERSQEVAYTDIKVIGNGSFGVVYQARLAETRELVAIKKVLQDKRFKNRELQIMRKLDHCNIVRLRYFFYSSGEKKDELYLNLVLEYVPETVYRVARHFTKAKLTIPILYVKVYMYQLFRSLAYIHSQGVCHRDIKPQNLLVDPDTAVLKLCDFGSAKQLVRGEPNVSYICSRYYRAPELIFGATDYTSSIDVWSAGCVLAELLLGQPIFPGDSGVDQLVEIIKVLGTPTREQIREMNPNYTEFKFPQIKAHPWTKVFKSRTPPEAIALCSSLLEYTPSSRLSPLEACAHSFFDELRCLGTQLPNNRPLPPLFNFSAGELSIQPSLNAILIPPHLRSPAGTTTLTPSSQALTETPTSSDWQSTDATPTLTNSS

Compound | learning (contextual fear conditioning) [1] | muscle grip strength [2] | IC50 (GSK3β) | other results
CC1(C)CC(=O)C2=C(C1)Nc1n[nH]c(C3CC3)c1[C@]2(C)c1ccccc1 [BRD0209] |  |  |  | potency for the two paralogs GSK3α and GSK3β (GSK3α): Equipotency
CC(C)(C)Cc1[nH]nc2c1[C@](C)(c1ccccc1)C1=C(CC(C)(C)CC1=O)N2 [BRD3731] | slight significant improvement | significant increase; also recorded: trend toward improvement | 0.015 µM | β-catenin protein levels in β-catenin heterozygous mouse brain and skeletal muscle relative to vehicle treated heterozygote (β-catenin protein levels): significantly increased; IC50 (GSK3α; at Km of ATP): 0.215 µM; selectivity for GSK3β (GSK3β): 14 fold
CC[C@@]1(c2ccccc2)C2=C(CC(C)(C)CC2=O)Nc2[nH]ncc21 [BRD0705] | did not display a significant trend to improvements; also recorded: slight trend (not significant) toward improvements | did not display a significant trend to improvements; also recorded: slight trend (not significant) toward improvements | 0.515 µM | 
O=C1NC(=O)C(c2cnc3ccccn23)=C1c1cn2c3c(cc(F)cc13)CN(C(=O)N1CCCCC1)CC2 [LY2090314, 3-(9-fluoro-2-(piperidine-1-carbonyl)-1,2,3,4-tetrahydro-[1,4]diazepino[6,7,1-hi]indol-7-yl)-4-(imidazo[1,2-a]pyridin-3-yl)-1H-pyrrole-2,5-dione] |  |  |  | β-cat protein levels in CTNNB1 het iPSCs relative to vehicle-treated het iPSCs ([3]; BRD0320 10 μM, 30 μM, LY2090314 0.1 μM, 0.3 μM, 24 hrs): increase; concentration that increases β-cat protein levels, relative to BRD0320 ([3]; CTNNB1 het iPSCs): 10 × lower
